Assay results: PMC9002393, “Phytochemical Study of Eryngium cymosum F. Delaroche and the Inhibitory Capacity of Its Main Compounds on Two Glucose-Producing Pathway Enzymes” (Plants, 2022)
Each block holds one compound with its values, some of them ahead of it.

What was measured:
[1] = target: T1, fructose-1,6-bisphosphatase (FBPase) (Rattus norvegicus, UniProt P19112); assay: Inhibition assay of fructose-1,6-bisphosphatase (FBPase); type: biochemical; details: rat liver cytosolic supernatant; for IC50: mean ± SEM of two assays in duplicate
T1 construct: Enzymatic activity started by adding rat liver cytosolic supernatant diluted 9:1; from tissue; host or cells: rat liver cytosolic supernatant
T1 sequence (P19112 2-363 limits assumed): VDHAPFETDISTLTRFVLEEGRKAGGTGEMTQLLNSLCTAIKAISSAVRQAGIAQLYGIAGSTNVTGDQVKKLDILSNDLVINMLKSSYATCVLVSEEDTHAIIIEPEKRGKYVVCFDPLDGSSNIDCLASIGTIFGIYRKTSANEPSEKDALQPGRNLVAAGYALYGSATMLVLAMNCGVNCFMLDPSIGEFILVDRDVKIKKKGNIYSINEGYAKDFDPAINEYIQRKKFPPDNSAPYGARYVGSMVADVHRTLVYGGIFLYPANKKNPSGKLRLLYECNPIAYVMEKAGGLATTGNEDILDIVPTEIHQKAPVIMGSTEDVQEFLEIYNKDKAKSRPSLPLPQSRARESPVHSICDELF
Experimental: Buffer (5 μM EDTA, 5 mM MgCl2, 50 mM Tris-HCl, pH 7.2) enriched with 0.1 mM of fructose-1,6-bisphosphate was added and incubated for 5 min with different concentrations of inhibitor or samples (adenosine 5′-monophosphate or compounds) in reaction mixtures of 1 mL. Enzymatic activity started by adding rat liver cytosolic supernatant diluted 9:1 and, 15 min later, ended with the addition of a color reagent previously prepared by mixing 1 volume of 7.5% ammonium molybdate and 0.17% TWEEN 20 with 4 volumes of stock solution (0.12% malachite green in 5 volumes of water with 1 volume of H2SO4). Finally, the reaction mixtures were incubated for 10 min at room temperature and measured at 630 nm.

[2] = target: T2, glucose-6-phosphatase (G6Pase) (Rattus norvegicus, UniProt P43428); assay: Inhibition assay of glucose-6-phosphatase (G6Pase); type: biochemical; details: rat liver microsomal fractions
T2 sequence (P43428 1-357): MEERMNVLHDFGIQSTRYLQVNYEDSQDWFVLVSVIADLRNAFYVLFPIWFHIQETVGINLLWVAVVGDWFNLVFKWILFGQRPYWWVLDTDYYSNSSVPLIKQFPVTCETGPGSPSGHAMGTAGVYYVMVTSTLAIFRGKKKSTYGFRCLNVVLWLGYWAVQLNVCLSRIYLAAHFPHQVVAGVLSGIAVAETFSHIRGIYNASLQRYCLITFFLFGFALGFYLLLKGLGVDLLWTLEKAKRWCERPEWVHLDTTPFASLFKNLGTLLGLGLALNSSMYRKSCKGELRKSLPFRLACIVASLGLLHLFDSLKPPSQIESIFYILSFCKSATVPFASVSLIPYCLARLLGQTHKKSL
Experimental: Rat liver microsomal fractions isolated through differential centrifugation were diluted 1:1 in buffer (40 mM imidazole, 250 mM sucrose, pH 7) and added to reaction mixtures, containing buffer and different concentrations of inhibitor samples (chlorogenic acid or compounds). Enzymatic activity started by adding 20 mM of glucose-6-phosphate (G6P). Next, the mixtures were incubated at 22 °C for 20 min and ended with the addition of 900 μL of a solution of 0.42% ammonium molybdate in 1 N H2SO4, 10% SDS, and 10% ascorbic acid. Finally, they were incubated at 45 °C for 20 min and measured at 830 nm.

[3] = target: α-amylase; set-up: method as in PMID 24825096; details: cited from earlier work
[4] = test system: db/db mouse; set-up: method as in PMID 16644902; details: treated for 5 weeks; cited from earlier work
[5] = target: α-glucosidase; set-up: method as in PMID 24825096; details: cited from earlier work
[6] = test system: STZ-induced diabetic rats; set-up: method as in PMID 20506690; details: oral administration for 45 days, 100 mg/kg bw; cited from earlier work
[7] = test system: STZ-induced diabetic rats; set-up: method as in PMID 21433280; details: 4 days of ad libitum consumption; cited from earlier work
[8] = test system: high-fat diet model-STZ-induced rats; set-up: method as in doi:10.1016/j.bionut.2014.03.006; details: consumption for 30 days; cited from earlier work
[9] = test system: ALR-2; set-up: method as in earlier work; details: read-out: ALR2 IC50; cited from earlier work
[10] = test system: ALR-1; set-up: method as in earlier work; details: read-out: ALR1 IC50; cited from earlier work

IC50 [1]: 48.7 µM
SMILES: Nc1ncnc2c1ncn2[C@@H]1O[C@H](COP(=O)(O)O)[C@@H](O)[C@H]1O [Adenosine 5′-monophosphate, reference compound]

SMILES: O=C(O)/C=C/c1ccc(O)c(O)c1 [Caffeic acid (4), caffeic acid]
inhibition over G6Pase (in words) [2]: modest inhibition | α-amylase IC50 [3]: 3.68 µg/mL | blood insulin levels [4]: blood insulin levels increased | plasma glucose levels [4]: plasma glucose levels decreased | α-glucosidase IC50 [5]: 4.98 µg/mL | inhibition over FBPase (in words) [1]: no inhibition

inhibition over G6Pase (in words) [2]: important inhibition | inhibition over FBPase (in words) [1]: important inhibition | IC50 [1]: 70.9 µM
SMILES: O=C(/C=C/c1ccc(O)cc1)OC[C@H]1O[C@@H](Oc2c(-c3ccc(O)cc3)oc3cc(O)cc(O)c3c2=O)[C@H](OC(=O)/C=C/c2ccc(O)cc2)[C@@H](O)[C@@H]1O [kaempferol-3-O-(2,6-di-O-trans-ρ-coumaryl)-β-D-glucopyranoside]

SMILES: O=C(O)c1ccc(O)c(O)c1 [protocatechuic acid (3), protocatechuic acid]
plasma glucose [6]: decrease in plasma glucose | plasma insulin [6]: increase in plasma insulin

SMILES: O=C(/C=C/c1ccc(O)c(O)c1)O[C@H](Cc1ccc(O)c(O)c1)C(=O)O [rosmarinic acid (2), rosmarinic acid]
blood glucose levels [7]: blood glucose levels were decreased | blood glucose levels [8]: decrease in blood glucose levels | plasma insulin [8]: increase in plasma insulin

SMILES: O=C1NC(=O)[C@@]2(CCOc3ccc(F)cc32)N1 [sorbinil]
IC50 [9]: 3.14 ± 0.02 µM

SMILES: CCCC(CCC)C(=O)O [valproic acid]
IC50 [10]: 57.4 ± 0.89 µM
